Results as given in patent US11578087B2, “Oxaborole esters and uses thereof” (priority 2016, dated 2023).

Key:
[1] = test system: T. cruzi amastigote (Td Tomato-modified) in Vero cells; test: In vitro IC50 measurement of T. cruzi amastigote killing using Td Tomato-modified T. cruzi; format: cell-based; conditions: Trypanosoma cruzi, 72 h, fluorescence, read-out: IC50: I Org. amastigote Growth T. cruzi 3 d
Experimental: Example 254. In Vitro IC50 Measurement of T. cruzi Amastigote Killing Using Td Tomato-Modified T. cruzi
The T. cruzi parasites used in this assay were genetically modified to express Td Tomato fluorescent protein. Vero cells (African green monkey kidney epithelial cells) were harvested from continuous cultures using trypsin and added to the inner 60 wells of 96-well Greiner Bio One plates (plate catalog #655090) at 200 ul/well of […]. Cells were allowed to adhere for 1 h before infection with T. cruzi. T. cruzi for infection were harvested from previously-infected Vero cells, washed, pelleted and resuspended at 5×10^6/mL. 50 uL of parasites were added to each well containing Vero cells. Compounds were prepared from 5 mM stock concentrations in DMSO to final concentrations in wells ranging from 5 uM to 5 nM. Wells were provided for negative controls, lacking compounds. Plates were placed into a 37° C. incubator for 20 min, then a “Day 0” reading was taken on a Synergy H4 plate reader to record initial fluorescence levels, at 544 (excitation) and 612 nm (emission). 96-well plates were placed in Tupperware containers with wet paper towels and incubated at 37° C. incubator for 72 h. After 72 h plates were reread (Day 3 reading) and data analyzed using Excel and/or Graphpad software. Day 0 fluorescence was subtracted from Day 3 to remove input parasite fluorescence. Growth curves are generated and 50% and 90% inhibitory concentrations are determined by nonlinear regression analysis.

[2] = test system: IL3000 T. congolense (drug sensitive) strain; test: In vitro Alamar Blue 72 h drug sensitivity assay for T. congolense; format: cell-based, Trypanosoma congolense; conditions: Trypanosoma congolense, 72 h, bloodstream form, 69 h + 3 h Resazurin, 34° C., read-out: IC50: I Org. Growth T. congolense 3 d
Experimental: Example 252. In Vitro Alamar Blue 72 h Drug Sensitivity Assay for T. congolense
Compounds were tested in vitro for chemotherapeutic potency against the IL3000 T. congolense (drug sensitive) strain, using the Alamar Blue assay with several modifications. Test compounds were prepared as 10 mg/mL DMSO stocks for each assay run. Compounds were assayed in at least three separate, independent test runs and an 11-point dilution curve was used to determine the IC50 values. Bloodstream form trypanosomes were supported in HMI media containing 20% bovine serum and were incubated with test compounds for 69 h at 34° C. in a humidified atmosphere containing 5% CO2. Thereafter, 10 μL of Resazurin dye (12.5 mg in 100 mL of phosphate buffered saline, Sigma-Aldrich, Buchs, Switzerland) were added for an additional 3 h. Plates were then read using a fluorescent plate reader (Spectramax, Gemini XS, Bucher Biotec, Basel, Switzerland) using an excitation wavelength of 536 nm and an emission wavelength of 588 nm. Data points were averaged to generate sigmoidal dose-response curves and IC50 values were determined using Softmax Pro 5.2 software.

Cc1c(C(=O)N[C@H](C(=O)OCCN2CCOCC2C)C(C)C)ccc2c1B(O)OC2 (stereo partly drawn) [Example 6-219, 2-(3-methylmorpholino)ethyl (1-hydroxy-7-methyl-1,3-dihydrobenzo[c][1,2]oxaborole-6-carbonyl)-L-valinate]
IC50 [1]: 21 to 999 nM
IC50 [2]: < 0.5 nM

Cc1c(C(=O)N[C@H](C(=O)OCc2ccc(F)cc2)[C@H](C)OCc2ccc(F)cc2)ccc2c1B(O)OC2 [Example 6-097, 4-Fluorobenzyl O-(4-fluorobenzyl)-N-(1-hydroxy-7-methyl-1,3-dihydrobenzo[c][1,2]oxaborole-6-carbonyl)-L-allothreoninate]
IC50 [1]: 21 to 999 nM
IC50 [2]: 0.51 to 9.99 nM

Cc1c(C(=O)N[C@H](C(=O)OC[C@H]2CCCO2)C(C)C)ccc2c1B(O)OC2 [Example 6-215, ((R)-tetrahydrofuran-2-yl)methyl (1-hydroxy-7-methyl-1,3-dihydrobenzo[c][1,2]oxaborole-6-carbonyl)-L-valinate]
IC50 [1]: ≤ 20 nM
IC50 [2]: < 0.5 nM

O=C(N[C@@H](CO)C(=O)OCc1ccccc1)c1ccc2c(c1)B(O)OC2 [Example 6-007, Benzyl (1-hydroxy-1,3-dihydrobenzo[c][1,2]oxaborole-6-carbonyl)-L-serinate]
IC50 [1]: ≥ 1000 nM
IC50 [2]: 10 to 5000 nM

Cc1c(C(=O)N[C@H](C(=O)OCc2cccc(C#N)c2)C(C)C)ccc2c1B(O)OC2 [Example 6-047, 3-Cyanobenzyl (1-hydroxy-7-methyl-1,3-dihydrobenzo[c][1,2]oxaborole-6-carbonyl)-L-valinate]
IC50 [1]: ≤ 20 nM
IC50 [2]: < 0.5 nM

Cc1c(C(=O)N[C@H](C(=O)OCc2cnc3ccccc3n2)C(C)C)ccc2c1B(O)OC2 [Example 6-123, Quinoxalin-2-ylmethyl (1-hydroxy-7-methyl-1,3-dihydrobenzo[c][1,2]oxaborole-6-carbonyl)-L-valinate]
IC50 [1]: ≤ 20 nM
IC50 [2]: < 0.5 nM

CCCc1c(C(=O)N[C@H](C(=O)OCc2ccccc2)C(C)C)ccc2c1B(O)OC2 [Example 6-065, Benzyl (1-hydroxy-7-propyl-1,3-dihydrobenzo[c][1,2]oxaborole-6-carbonyl)-L-valinate]
IC50 [1]: 21 to 999 nM
IC50 [2]: 0.51 to 9.99 nM

Cc1c(C(=O)N[C@H](C(=O)OCc2ccc(C#N)cn2)C(C)C)ccc2c1B(O)OC2 [Example 6-200, (5-cyanopyridin-2-yl)methyl (1-hydroxy-7-methyl-1,3-dihydrobenzo[c][1,2]oxaborole-6-carbonyl)-L-valinate]
IC50 [1]: ≤ 20 nM
IC50 [2]: < 0.5 nM

Cc1c(C(=O)N[C@H](C(=O)OCc2ccc(C(=O)NCCN(C)C)cc2)C(C)C)ccc2c1B(O)OC2 [Example 6-103, 4-((2-(Dimethylamino)ethyl)carbamoyl)benzyl (1-hydroxy-7-methyl-1,3-dihydrobenzo[c][1,2]oxaborole-6-carbonyl)-L-valinate]
IC50 [1]: ≥ 1000 nM
IC50 [2]: 10 to 5000 nM

Cc1c(C(=O)N[C@H](C(=O)OCc2cccc(CN3CCCC3)c2)C(C)C)ccc2c1B(O)OC2 [Example 6-113, 3-(Pyrrolidin-1-ylmethyl)benzyl (1-hydroxy-7-methyl-1,3-dihydrobenzo[c][1,2]oxaborole-6-carbonyl)-L-valinate]
IC50 [1]: ≤ 20 nM
IC50 [2]: < 0.5 nM

Cc1c(C(=O)N[C@H](C(=O)OCc2cccc(S(C)(=O)=O)c2)C(C)C)ccc2c1B(O)OC2 [Example 6-080, 3-(Methylsulfonyl)benzyl (1-hydroxy-7-methyl-1,3-dihydrobenzo[c][1,2]oxaborole-6-carbonyl)-L-valinate]
IC50 [1]: 21 to 999 nM
IC50 [2]: 0.51 to 9.99 nM

Cc1c(C(=O)N[C@H](C(=O)OCc2ccc(F)cc2)C2CC2)ccc2c1B(O)OC2 [Example 6-050, 4-Fluorobenzyl (S)-2-cyclopropyl-2-(1-hydroxy-7-methyl-1,3-dihydrobenzo[c][1,2]oxaborole-6-carboxamido)acetate]
IC50 [1]: 21 to 999 nM
IC50 [2]: < 0.5 nM

Cc1c(C(=O)N[C@H](C(=O)OCC2COCCOC2)C(C)C)ccc2c1B(O)OC2 [Example 6-157, (1,4-Dioxepan-6-yl)methyl (1-hydroxy-7-methyl-1,3-dihydrobenzo[c][1,2]oxaborole-6-carbonyl)-L-valinate]
IC50 [1]: 21 to 999 nM
IC50 [2]: < 0.5 nM

CNCc1cccc(COC(=O)[C@@H](NC(=O)c2ccc3c(c2C)B(O)OC3)C(C)C)c1 [Example 6-122, 3-((Methylamino)methyl)benzyl (1-hydroxy-7-methyl-1,3-dihydrobenzo[c][1,2]oxaborole-6-carbonyl)-L-valinate]
IC50 [1]: ≥ 1000 nM
IC50 [2]: 10 to 5000 nM

Cc1c(C(=O)NC2(C(=O)OCc3ccc(F)cc3)COC2)ccc2c1B(O)OC2 [Example 6-221, 4-fluorobenzyl 3-(1-hydroxy-7-methyl-1,3-dihydrobenzo[c][1,2]oxaborole-6-carboxamido)oxetane-3-carboxylate]
IC50 [1]: 21 to 999 nM
IC50 [2]: 0.51 to 9.99 nM

Cc1c(C(=O)N[C@H](C(=O)OCC2(O)CCCC2)C(C)C)ccc2c1B(O)OC2 [Example 6-220, (1-hydroxycyclopentyl)methyl (1-hydroxy-7-methyl-1,3-dihydrobenzo[c][1,2]oxaborole-6-carbonyl)-L-valinate]
IC50 [1]: ≤ 20 nM
IC50 [2]: 0.51 to 9.99 nM

COCCOC(=O)[C@@H](NC(=O)c1ccc2c(c1C)B(O)OC2)C(C)C [Example 6-107, 2-Methoxyethyl (1-hydroxy-7-methyl-1,3-dihydrobenzo[c][1,2]oxaborole-6-carbonyl)-L-valinate]
IC50 [1]: ≤ 20 nM
IC50 [2]: < 0.5 nM

Cc1c(C(=O)N[C@H](C(=O)OCc2ccc(S(=O)(=O)C(C)C)cc2)C(C)C)ccc2c1B(O)OC2 [Example 6-092, 4-(Isopropylsulfonyl)benzyl (1-hydroxy-7-methyl-1,3-dihydrobenzo[c][1,2]oxaborole-6-carbonyl)-L-valinate]
IC50 [1]: 21 to 999 nM
IC50 [2]: < 0.5 nM

Cc1c(C(=O)N[C@H](C(=O)OCc2ccc(CN3CCOCC3)cc2)C(C)C)ccc2c1B(O)OC2 [Example 6-130, 4-(Morpholinomethyl)benzyl (1-hydroxy-7-methyl-1,3-dihydrobenzo[c][1,2]oxaborole-6-carbonyl)-L-valinate]
IC50 [1]: 21 to 999 nM
IC50 [2]: < 0.5 nM

Cc1c(C(=O)N[C@H](C(=O)OCc2ccc(S(=O)(=O)N3CCOCC3)cc2)C(C)C)ccc2c1B(O)OC2 [Example 6-086, 4-(Morpholinosulfonyl)benzyl (1-hydroxy-7-methyl-1,3-dihydrobenzo[c][1,2]oxaborole-6-carbonyl)-L-valinate]
IC50 [1]: 21 to 999 nM
IC50 [2]: < 0.5 nM

Cc1c(C(=O)N[C@H](C(=O)OC2CCCC2)C(C)C)ccc2c1B(O)OC2 [Example 6-132, Cyclopentyl (1-hydroxy-7-methyl-1,3-dihydrobenzo[c][1,2]oxaborole-6-carbonyl)-L-valinate]
IC50 [1]: ≤ 20 nM
IC50 [2]: < 0.5 nM

Cc1c(C(=O)N[C@H](C(=O)OCc2ncc[nH]2)C(C)C)ccc2c1B(O)OC2 [Example 6-143, (1H-Imidazol-2-yl)methyl (1-hydroxy-7-methyl-1,3-dihydrobenzo[c][1,2]oxaborole-6-carbonyl)-L-valinate]
IC50 [1]: ≥ 1000 nM
IC50 [2]: 10 to 5000 nM

CCOc1c(C(=O)N[C@H](C(=O)OCc2ccc(F)cc2)C(C)C)ccc2c1B(O)OC2 [Example 6-196, 4-Fluorobenzyl (7-ethoxy-1-hydroxy-1,3-dihydrobenzo[c][1,2]oxaborole-6-carbonyl)-L-valinate]
IC50 [1]: ≥ 1000 nM
IC50 [2]: 0.51 to 9.99 nM

Cc1c(C(=O)N[C@H](C(=O)OCc2cccc(N3CCNCC3)c2)C(C)C)ccc2c1B(O)OC2 [Example 6-126, 3-(Piperazin-1-yl)benzyl (1-hydroxy-7-methyl-1,3-dihydrobenzo[c][1,2]oxaborole-6-carbonyl)-L-valinate]
IC50 [1]: ≥ 1000 nM
IC50 [2]: 0.51 to 9.99 nM

Cc1c(C(=O)N[C@H](C(=O)OCCc2ccc(F)cc2)C(C)C)ccc2c1B(O)OC2 [Example 6-121, 4-Fluorophenethyl (1-hydroxy-7-methyl-1,3-dihydrobenzo[c][1,2]oxaborole-6-carbonyl)-L-valinate]
IC50 [1]: ≤ 20 nM
IC50 [2]: < 0.5 nM

CCOc1c(C(=O)N[C@H](C(=O)OCc2ccccc2)C(C)C)ccc2c1B(O)OC2 [Example 6-192, Benzyl (7-ethoxy-1-hydroxy-1,3-dihydrobenzo[c][1,2]oxaborole-6-carbonyl)-L-valinate]
IC50 [1]: ≥ 1000 nM
IC50 [2]: 0.51 to 9.99 nM
